What all share (type): physicochemical
Data set [1] in a line: XRPD analysis of crystalline form after DSD. The text has this: 8. The crystalline form was kept unchanged, as confirmed by XRPD analysis. 9. Through this delicate balance, stabilization of the suspension is accomplished (FIG. 3) in a simpler, effective, reproducible and easily scalable way; additionally, no impact on the polymorphic form was noticeable by XPRD analysis.

Data set [2] is described as follows: Particle size (in-process control) after high pressure homogenization and during spray drying, with and without DSD. The procedure:
1. Mometasone furoate monohydrate (2330 g) was suspended in water (23000 g) and stirred for 5 hours in order to obtain a uniform suspension; afterwards, it was fed to a lab scale HPH apparatus operating at pressures ranging from 757.5 to 1363.5 bar in recirculation mode (returning the discharge of the HPH to the stirred vessel inlet), having this step ended with a Dv50˜2 μm after 63 hours of operation;
2. After the homogenization step described in point 1. above, particle size of the active pharmaceutical ingredient was within target and the suspension was fed to a lab scale spray dryer in order to isolate the active pharmaceutical ingredient in the form of a powder;
3. […] Due to this unstable behavior (the final material properties were trending out of targets) the batch had to be interrupted to accommodate an investigation.
6. In order to move forward with the manufacturing of the mentioned batch and following ones, the dynamic suspension drying (DSD) was applied targeting the stabilization of the suspension during drying for that purpose the suspension was recycled at a moderated pressure of 455 bar.

Data set [3] can be described thus: Laboratory study of Ostwald Ripening: particle size growth of size-reduced suspensions stored at different temperatures, LSW model fit. The procedure:
4. In order to confirm that the observed PS instability was being caused by OR phenomenon, a laboratorial study was designed. In this study, two suspensions of MFM were size-reduced via HPH to a different PS (D50=2.0 μm and 3.0 μm) and, afterwards, stored at different temperatures (5° C. and 45° C.). In all cases, PS growth was monitored by considering […] sampling time points (24, 72, 144 and 168 h).
Before fitting the obtained data, a literature review was conducted; several models can be found for OR modeling, with most of them being modifications of the Lifshitz, Slyozov and Wagner (LSW) theory (Eq. 1), which is a kinetic model that translates an isothermal variation of the more general problem (M. Mrotzek, 2008): […]
Based on the above equation, two important observations (M. Mrotzek, 2008) (V. Sadtler, 2002) are expected when in the presence of OR: i) a cubic or quadratic growth (depending on the limiting step) and ii) a more pronounced increase of K for higher temperatures. As shown in FIG. 2 (left plot), both previous observations are valid for the current case-study, thus supporting the presence of OR; in this plot, r^3-r0^3 was represented as a function of time and the K value determined by performing a linear regression where Eq. 1 was assumed as the theoretical model; as shown in […] (right plot) a good correlation coefficient was obtained (R^2=0.94).

Each structure is given as a SMILES string.

As for `C[C@@H]1C[C@H]2[C@@H]3CCC4=CC(=O)C=C[C@]4(C)[C@@]3(Cl)[C@@H](O)C[C@]2(C)[C@@]1(OC(=O)c1ccco1)C(=O)CCl` [Mometasone furoate monohydrate], in data set [1], the “crystalline form after DSD” value was “unchanged”. Moreover, in data set [2] (suspension in water, HPH at 757.5 to 1363.5 bar in recirculation mode, after 63 hours of operation), the “Dv50 at end of HPH step” value was roughly 2 μm. Moreover, in data set [2] (suspension kept under stirring in feed vessel, no DSD, FIG. 2), the “particle size trend during isolating step (spray drying) without recirculation” value is listed as “increasing values of particle size were observed over time”. In data set [2] (suspension recycled to HPH at 455 bar during drying, on average, FIG. 4), the “Dv50 of isolated product manufactured through DSD” value is listed as roughly 2 μm. Further, the “Ostwald Ripening at 5° C. for target D50 range” value in data set [3] (D50 ~2 μm, 5° C., water as anti-solvent) is given as “still significant”. Further, in data set [3] (suspensions size-reduced to D50 = 2.0 μm and 3.0 μm, stored at 5° C. and 45° C., up to 168 h), the “Ostwald Ripening rate constant K at 5° C. compared to 45° C.” value is listed as “more than five times lower”.
